# System: THP-1
# Test: In vitro activity to inhibit MCP-1-induced leukocyte migration of THP-1 cells
# Type: functional
# Details: Homo sapiens, read-out: ED50 (the source's name)
row,Structure (SMILES),EC50 [nM]
1,C=CCCCCCCCCC(=O)N[C@H]1CCCNC1=O,100
2,C=CCCCCCCCCC(=O)N[C@H]1CCC(=O)N(C)C1=O,33
3,C#CCCCCCCCCC(=O)N[C@H]1CCCCNC1=O,10
4,CCCCCCCCCCC(=O)N[C@H]1CCCCNC1=O,50
5,CCCCCCCCCCC(=O)N[C@H](CCC(=O)O)C(N)=O,40000
6,CCCCCC/C=C\CCCCCCCC(=O)N[C@H]1CCCCNC1=O,3
7,C=CCCCCCCCCC(=O)N[C@@H]1CCC(=O)NC1=O,250
8,CCCCCCCCCCC(=O)N[C@@H](CCC(=O)O)C(=O)O,10000
9,CCCCCCCCCCCCCCCC(=O)N[C@H]1CCCCNC1=O,3
10,C=CCCCCCCCCC(=O)N[C@H]1CCCCNC1=O,40
11,C=CCCCCCCCCC(=O)N[C@H]1CCNC1=O,245
12,CCCCCCCCCCCC(=O)N[C@H]1CCCCNC1=O,15
13,CCCCCCCCCCC(=O)N[C@@H](CCC(N)=O)C(=O)O,30000
14,CCCCCCCCCCCCCC(=O)N[C@H]1CCCCNC1=O,5
15,C=CCCCCCCCCC(=O)N[C@H]1CCC(=O)NC1=O,5
16,CCCCCCCC/C=C\CCCCCCCC(=O)N[C@H]1CCCCNC1=O,3
17,CCCCCCCC/C=C\CCCCCCCC(=O)N[C@@H]1CCCCNC1=O,30
18,CCCCCCCCCCC(=O)N[C@H](CCC(N)=O)C(=O)O,50000
19,CCCCCCCCCCC(=O)N[C@H](CCC(=O)O)C(=O)O,25000
20,CCCCCCCCCCC(=O)N[C@@H](CCC(=O)O)C(N)=O,15000
21,CCCCCCCCCCCCCCCC(=O)N[C@@H]1CCCCNC1=O,40
22,"CCCCCCCCCCC(=O)NC1CCC(=O)NC1=O (single isomer, unassigned)",10
23,N[C@@H](CCCC(=O)O)C(=O)O [(S)-2-AMINOADIPIC ACID],> 100000
24,N[C@H](CCC(=O)O)C(=O)O [D-GLUTAMATE],> 100000

# From ChEMBL document CHEMBL1142656, “Identification of 3-(acylamino)azepan-2-ones as stable broad-spectrum chemokine inhibitors resistant to metabolism in vivo” (2005)
